# Columns and labels:
# [1] = molecular target: T1, c-Met (cytoplasmic domain) (Homo sapiens, UniProt P08581); test: c-Met Kinase Assay (same methods as for ALK, with modifications); type: biochemical; conditions: c-Met kinase inhibition, 1 μM ATP; read-out: cMet Activity
# T1 construct: 10 ng/mL c-Met (cytoplasmic domain, Invitrogen Corporation #PV3143); purchased Invitrogen Corporation PV3143
# Procedure, shortened: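 Steps: coat wells with PLC-γ (10 μg/mL, Tris-buffered saline); add 10 ng/mL c-Met cytoplasmic domain to initiate; incubate 15 min, 37° C; detect phosphoproduct via Eu-N1 PT66 antibody.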
# [2] = molecular target: T2, baculovirus-expressed ALK (Homo sapiens, UniProt Q9UM73); test: ALK Kinase Assay (ELISA-type, time-resolved fluorescence); type: biochemical; conditions: ALK kinase inhibition, 1 μM ATP; read-out: ALK Activity
# T2 construct: host or cells: baculovirus expression system
# Procedure, shortened: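 Wells were coated with phospholipase C-γ at 10 μg/mL in Tris-buffered saline. Adding 30 ng/ml enzyme started the reaction, which ran at 37° C for 15 minutes before Eu-N1 PT66 antibody detection. Percent inhibition versus log10 concentration gave IC50 by variable-slope fit.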
# T1 sequence (P08581 956-1390 limits assumed): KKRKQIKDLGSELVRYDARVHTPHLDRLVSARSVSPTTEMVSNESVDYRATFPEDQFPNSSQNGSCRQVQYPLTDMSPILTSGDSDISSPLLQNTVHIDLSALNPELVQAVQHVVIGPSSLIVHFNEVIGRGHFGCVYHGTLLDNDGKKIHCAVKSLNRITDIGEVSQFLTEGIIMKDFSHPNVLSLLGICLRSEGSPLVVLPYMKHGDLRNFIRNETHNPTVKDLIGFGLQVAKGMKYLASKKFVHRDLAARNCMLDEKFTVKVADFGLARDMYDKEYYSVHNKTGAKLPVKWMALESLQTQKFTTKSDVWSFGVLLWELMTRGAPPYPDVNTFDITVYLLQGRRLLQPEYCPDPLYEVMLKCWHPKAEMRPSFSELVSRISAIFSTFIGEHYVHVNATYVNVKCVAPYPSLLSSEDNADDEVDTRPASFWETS
# T2 sequence (Q9UM73 19-1620): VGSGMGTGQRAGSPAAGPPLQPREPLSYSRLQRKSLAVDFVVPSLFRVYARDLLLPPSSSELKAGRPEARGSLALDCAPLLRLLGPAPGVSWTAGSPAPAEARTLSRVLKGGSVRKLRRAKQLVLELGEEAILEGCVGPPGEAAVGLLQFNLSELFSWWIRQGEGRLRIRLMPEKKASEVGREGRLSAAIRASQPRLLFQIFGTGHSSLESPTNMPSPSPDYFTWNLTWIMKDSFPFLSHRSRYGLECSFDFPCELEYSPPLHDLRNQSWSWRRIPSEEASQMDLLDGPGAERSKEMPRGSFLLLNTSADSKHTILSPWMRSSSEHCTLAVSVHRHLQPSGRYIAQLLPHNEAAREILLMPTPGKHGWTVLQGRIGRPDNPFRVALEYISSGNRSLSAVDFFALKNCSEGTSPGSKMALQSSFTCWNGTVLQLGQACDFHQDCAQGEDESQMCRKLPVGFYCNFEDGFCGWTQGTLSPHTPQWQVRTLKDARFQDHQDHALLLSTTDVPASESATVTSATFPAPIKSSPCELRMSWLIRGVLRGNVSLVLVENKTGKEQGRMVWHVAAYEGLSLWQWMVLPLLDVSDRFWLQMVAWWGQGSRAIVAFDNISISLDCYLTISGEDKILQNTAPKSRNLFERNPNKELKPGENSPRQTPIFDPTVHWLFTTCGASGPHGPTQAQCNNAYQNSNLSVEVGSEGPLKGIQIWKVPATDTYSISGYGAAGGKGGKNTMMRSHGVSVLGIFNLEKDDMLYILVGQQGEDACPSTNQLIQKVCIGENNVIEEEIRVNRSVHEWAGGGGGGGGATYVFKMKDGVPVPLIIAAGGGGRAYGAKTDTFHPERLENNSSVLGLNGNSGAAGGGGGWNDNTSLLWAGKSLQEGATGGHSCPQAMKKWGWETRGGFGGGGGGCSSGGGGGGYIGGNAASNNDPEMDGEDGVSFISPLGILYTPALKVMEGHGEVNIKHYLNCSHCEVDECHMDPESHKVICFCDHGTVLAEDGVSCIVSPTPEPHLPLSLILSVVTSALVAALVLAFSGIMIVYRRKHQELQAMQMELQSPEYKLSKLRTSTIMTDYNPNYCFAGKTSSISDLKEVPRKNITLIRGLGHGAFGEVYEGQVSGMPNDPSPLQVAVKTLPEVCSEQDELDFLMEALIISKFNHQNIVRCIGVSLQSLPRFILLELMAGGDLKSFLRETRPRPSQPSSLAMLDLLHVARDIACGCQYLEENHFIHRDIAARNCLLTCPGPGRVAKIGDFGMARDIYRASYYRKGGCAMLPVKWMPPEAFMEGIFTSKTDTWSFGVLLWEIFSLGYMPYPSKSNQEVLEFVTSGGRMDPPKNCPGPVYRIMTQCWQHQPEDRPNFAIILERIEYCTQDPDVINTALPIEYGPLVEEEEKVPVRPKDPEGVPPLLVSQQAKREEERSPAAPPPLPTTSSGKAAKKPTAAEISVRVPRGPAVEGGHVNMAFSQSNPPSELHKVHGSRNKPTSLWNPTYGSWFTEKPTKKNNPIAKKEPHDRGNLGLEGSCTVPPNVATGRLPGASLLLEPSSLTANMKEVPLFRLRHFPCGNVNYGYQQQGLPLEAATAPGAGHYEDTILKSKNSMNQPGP
smiles,measurement,setting,value
"COc1cc2c(cc1Nc1ncc(Cl)c(Nc3ccccc3S(=O)(=O)N(C)C)n1)CCN(CC(C)O)CC2 (stereo not shown) [Example 1547, 2-{5-Chloro-2-[3-(2-hydroxy-propyl)-8-methoxy-2,3,4,5-tetrahydro-1H-3-benzazepin-7-ylamino]-pyrimidin-4-ylamino}-N,N-dimethyl-benzenesulfonamide]",IC50,[1],1000 to 10000 nM
same,IC50,[2],< 100 nM
"COc1cc2c(cc1Nc1ncc(Cl)c(N[C@H]3[C@@H](C(N)=O)[C@@H]4C=C[C@H]3C4)n1)CCN(CC(C)O)CC2 (stereo partly drawn) [Example 1548, (1S,2S,3R,4R)-3-{5-Chloro-2-[3-(2-hydroxy-propyl)-8-methoxy-2,3,4,5-tetrahydro-1H-3-benzazepin-7-ylamino]-pyrimidin-4-ylamino}-bicyclo[2.2.1]hept-5-ene-2-carboxylic acid amide]",IC50,[1],> 10000 nM
same,IC50,[2],< 100 nM
"COCCOC(=O)c1ccccc1Nc1nc(Nc2cc3c(cc2OC)CCN(CCO)CC3)ncc1Cl [Example 1549, 2-{5-Chloro-2-[3-(2-hydroxy-ethyl)-8-methoxy-2,3,4,5-tetrahydro-1H-3-benzazepin-7-ylamino]-pyrimidin-4-ylamino}-benzoic acid 2-methoxy-ethyl ester]",IC50,[1],> 10000 nM
same,IC50,[2],< 100 nM
"COCCOC(=O)c1ccccc1Nc1nc(Nc2cc3c(cc2OC)CCN(CC(C)O)CC3)ncc1Cl (stereo not shown) [Example 1550, 2-{5-Chloro-2-[3-(2-hydroxy-propyl)-8-methoxy-2,3,4,5-tetrahydro-1H-3-benzazepin-7-ylamino]-pyrimidin-4-ylamino}-benzoic acid 2-methoxy-ethyl ester]",IC50,[1],> 10000 nM
same,IC50,[2],< 100 nM
"COc1cc2c(cc1Nc1ncc(Cl)c(Nc3ccccc3S(=O)(=O)N3CCC(O)C3)n1)CCN(CCO)CC2 (stereo not shown) [Example 1551, 1-(2-{5-Chloro-2-[3-(2-hydroxy-ethyl)-8-methoxy-2,3,4,5-tetrahydro-1H-3-benzazepin-7-ylamino]-pyrimidin-4-ylamino}-benzenesulfonyl)-pyrrolidin-3-ol]",IC50,[1],100 to 1000 nM
same,IC50,[2],< 100 nM
"COc1cc2c(cc1Nc1ncc(Cl)c(Nc3ccccc3S(=O)(=O)N3CCC(O)C3)n1)CCN(CC(C)O)CC2 (stereo not shown) [Example 1552, 1-(2-{5-Chloro-2-[3-(2-hydroxy-propyl)-8-methoxy-2,3,4,5-tetrahydro-1H-3-benzazepin-7-ylamino]-pyrimidin-4-ylamino}-benzenesulfonyl)-pyrrolidin-3-ol]",IC50,[1],1000 to 10000 nM
same,IC50,[2],< 100 nM
"COc1cc2c(cc1Nc1ncc(Cl)c(Nc3ccccc3S(=O)(=O)N3CCCC3)n1)CCN(CC(C)O)CC2 (stereo not shown) [Example 1553, 1-(7-{5-Chloro-4-[2-(pyrrolidine-1-sulfonyl)-phenylamino]-pyrimidin-2-ylamino}-8-methoxy-1,2,4,5-tetrahydro-3-benzazepin-3-yl)-propan-2-ol]",IC50,[1],100 to 1000 nM
same,IC50,[2],< 100 nM
"COc1cc2c(cc1Nc1ncc(Cl)c(Nc3ccccc3S(=O)(=O)N3CC[C@@H](O)C3)n1)CCN(C[C@H](C)O)CC2 [Example 1554, (R)-1-(2-{5-Chloro-2-[3-((S)-2-hydroxy-propyl)-8-methoxy-2,3,4,5-tetrahydro-1H-3-benzazepin-7-ylamino]-pyrimidin-4-ylamino}-benzenesulfonyl)-pyrrolidin-3-ol]",IC50,[1],100 to 1000 nM
same,IC50,[2],< 100 nM
"COc1cc2c(cc1Nc1ncc(Cl)c(Nc3ccccc3S(=O)(=O)N3CC[C@H](O)C3)n1)CCN(C[C@H](C)O)CC2 [Example 1555, (S)-1-(2-{5-Chloro-2-[3-((S)-2-hydroxy-propyl)-8-methoxy-2,3,4,5-tetrahydro-1H-3-benzazepin-7-ylamino]-pyrimidin-4-ylamino}-benzenesulfonyl)-pyrrolidin-3-ol]",IC50,[1],100 to 1000 nM
same,IC50,[2],< 100 nM
"COc1cc2c(cc1Nc1ncc(Cl)c(Nc3ccccc3S(=O)(=O)N3CC[C@H](O)C3)n1)CCN(C[C@@H](C)O)CC2 [Example 1556, (S)-1-(2-{5-Chloro-2-[3-((R)-2-hydroxy-propyl)-8-methoxy-2,3,4,5-tetrahydro-1H-3-benzazepin-7-ylamino]-pyrimidin-4-ylamino}-benzenesulfonyl)-pyrrolidin-3-ol]",IC50,[1],1000 to 10000 nM
same,IC50,[2],< 100 nM
"COc1cc2c(cc1Nc1ncc(Cl)c(Nc3ccccc3S(=O)(=O)N3CC[C@@H](O)C3)n1)CCN(C[C@@H](C)O)CC2 [Example 1557, (R)-1-(2-{5-Chloro-2-[3-((R)-2-hydroxy-propyl)-8-methoxy-2,3,4,5-tetrahydro-1H-3-benzazepin-7-ylamino]-pyrimidin-4-ylamino}-benzenesulfonyl)-pyrrolidin-3-ol]",IC50,[1],> 10000 nM
same,IC50,[2],< 100 nM
"COc1cc2c(cc1Nc1ncc(Cl)c(N[C@H]3[C@@H](C(N)=O)[C@@H]4C=C[C@H]3C4)n1)CCN(C[C@H](C)O)CC2 [Example 1558, (1S,2S,3R,4R)-3-{5-Chloro-2-[3-((S)-2-hydroxy-propyl)-8-methoxy-2,3,4,5-tetrahydro-1H-3-benzazepin-7-ylamino]-pyrimidin-4-ylamino}-bicyclo[2.2.1]hept-5-ene-2-carboxylic acid amide]",IC50,[1],> 10000 nM
same,IC50,[2],< 100 nM
"COc1cc2c(cc1Nc1ncc(Cl)c(N[C@H]3[C@@H](C(N)=O)[C@@H]4C=C[C@H]3C4)n1)CCN(C[C@@H](C)O)CC2 [Example 1559, (1S,2S,3R,4R)-3-{5-Chloro-2-[3-((R)-2-hydroxy-propyl)-8-methoxy-2,3,4,5-tetrahydro-1H-3-benzazepin-7-ylamino]-pyrimidin-4-ylamino}-bicyclo[2.2.1]hept-5-ene-2-carboxylic acid amide]",IC50,[1],> 10000 nM
same,IC50,[2],< 100 nM
"COc1cc2c(cc1Nc1ncc(Cl)c(N[C@H]3[C@@H](C(N)=O)[C@@H]4C=C[C@H]3C4)n1)CCN(CC(C)(C)O)CC2 [Example 1560, (1S,2S,3R,4R)-3-{5-Chloro-2-[3-(2-hydroxy-2-methyl-propyl)-8-methoxy-2,3,4,5-tetrahydro-1H-3-benzazepin-7-ylamino]-pyrimidin-4-ylamino}-bicyclo[2.2.1]hept-5-ene-2-carboxylic acid amide]",IC50,[1],> 10000 nM
same,IC50,[2],< 100 nM
"COc1cc2c(cc1Nc1ncc(Cl)c(Nc3ccccc3S(=O)(=O)N3CC[C@@H](O)C3)n1)CCN(CC(C)(C)O)CC2 [Example 1561, (R)-1-(2-{5-Chloro-2-[3-(2-hydroxy-2-methyl-propyl)-8-methoxy-2,3,4,5-tetrahydro-1H-3-benzazepin-7-ylamino]-pyrimidin-4-ylamino}-benzenesulfonyl)-pyrrolidin-3-ol]",IC50,[1],1000 to 10000 nM
same,IC50,[2],< 100 nM
"COc1cc2c(cc1Nc1ncc(Cl)c(Nc3ccccc3S(=O)(=O)N3CC[C@H](O)C3)n1)CCN(CC(C)(C)O)CC2 [Example 1562, (S)-1-(2-{5-Chloro-2-[3-(2-hydroxy-2-methyl-propyl)-8-methoxy-2,3,4,5-tetrahydro-1H-3-benzazepin-7-ylamino]-pyrimidin-4-ylamino}-benzenesulfonyl)-pyrrolidin-3-ol]",IC50,[1],100 to 1000 nM
same,IC50,[2],< 100 nM
"COc1cc2c(cc1Nc1ncc(Cl)c(Nc3ccccc3S(=O)(=O)N(C)C)n1)CCN(CC(C)(C)O)CC2 [Example 1563, 2-{5-Chloro-2-[3-(2-hydroxy-2-methyl-propyl)-8-methoxy-2,3,4,5-tetrahydro-1H-3-benzazepin-7-ylamino]-pyrimidin-4-ylamino}-N,N-dimethyl-benzenesulfonamide]",IC50,[1],1000 to 10000 nM
same,IC50,[2],< 100 nM
"CN1C(=O)CCC(C)(C)c2cc(Nc3ncc(Cl)c(N[C@H]4[C@@H](C(N)=O)[C@@H]5C=C[C@H]4C5)n3)ccc21 [Example 1571, (1S,2S,3R,4R)-3-[5-Chloro-2-(1,5,5-trimethyl-2-oxo-2,3,4,5-tetrahydro-1H-benzo[b]azepin-7-ylamino)-pyrimidin-4-ylamino]-bicyclo[2.2.1]hept-5-ene-2-carboxylic acid amide]",IC50,[1],100 to 1000 nM
same,IC50,[2],< 100 nM
"CNC(=O)c1scc(C)c1Nc1nc(Nc2ccc3c(c2)C(C)(C)CCC(=O)N3)ncc1Cl [Example 1572, 3-[5-Chloro-2-(5,5-dimethyl-2-oxo-2,3,4,5-tetrahydro-1H-benzo[b]azepin-7-ylamino)-pyrimidin-4-ylamino]-4-methyl-thiophene-2-carboxylic acid methyl amide]",IC50,[1],100 to 1000 nM
same,IC50,[2],100 to 1000 nM
"COc1cc(N2CCOCC2)ccc1Nc1nc(Nc2ccc3c(c2)C(C)(C)CCC(=O)N3C)ncc1Cl [Example 1573, 7-[5-Chloro-4-(2-methoxy-4-morpholin-4-yl-phenylamino)-pyrimidin-2-ylamino]-1,5,5-trimethyl-1,3,4,5-tetrahydro-benzo[b]azepin-2-one]",IC50,[1],1000 to 10000 nM
same,IC50,[2],< 100 nM
"CCNC(=O)c1cccc(F)c1Nc1nc(Nc2ccc3c(c2)NC(=O)CCC3(C)C)ncc1Cl [Example 1575, 2-[5-Chloro-2-(5,5-dimethyl-2-oxo-2,3,4,5-tetrahydro-1H-benzo[b]azepin-8-ylamino)-pyrimidin-4-ylamino]-N-ethyl-3-fluoro-benzamide]",IC50,[1],< 100 nM
same,IC50,[2],< 100 nM
"Cc1cccc(C(N)=O)c1Nc1nc(Nc2ccc3c(c2)NC(=O)CCC3(C)C)ncc1Cl [Example 1577, 2-[5-Chloro-2-(5,5-dimethyl-2-oxo-2,3,4,5-tetrahydro-1H-benzo[b]azepin-8-ylamino)-pyrimidin-4-ylamino]-3-methyl-benzamide]",IC50,[1],100 to 1000 nM
same,IC50,[2],1000 to 10000 nM
"CC1(C)CCC(=O)Nc2cc(Nc3ncc(Cl)c(Nc4ccccc4OCC#N)n3)ccc21 [Example 1578, {2-[5-Chloro-2-(5,5-dimethyl-2-oxo-2,3,4,5-tetrahydro-1H-benzo[b]azepin-8-ylamino)-pyrimidin-4-ylamino]-phenoxy}-acetonitrile]",IC50,[1],100 to 1000 nM
same,IC50,[2],< 100 nM
